Measured values from US8642593B2, “2,4-pyrimidinediamine compounds and prodrugs and their uses” (Rigel Pharmaceuticals, Inc., priority 2009, dated 2014).

Tests used:
Ret kinase = target: T1, Ret kinase (Homo sapiens, UniProt P07949); assay: Biochemical Ret Assay (ELISA-based); details: for IC50: Table 2, unit inferred, read-out: Biochem Ret; for selectivity over Ret kinase compared with the control: vs control compound
T1 construct: purchased Millipore #14-570
T1 sequence (P07949 658-1114 limits assumed): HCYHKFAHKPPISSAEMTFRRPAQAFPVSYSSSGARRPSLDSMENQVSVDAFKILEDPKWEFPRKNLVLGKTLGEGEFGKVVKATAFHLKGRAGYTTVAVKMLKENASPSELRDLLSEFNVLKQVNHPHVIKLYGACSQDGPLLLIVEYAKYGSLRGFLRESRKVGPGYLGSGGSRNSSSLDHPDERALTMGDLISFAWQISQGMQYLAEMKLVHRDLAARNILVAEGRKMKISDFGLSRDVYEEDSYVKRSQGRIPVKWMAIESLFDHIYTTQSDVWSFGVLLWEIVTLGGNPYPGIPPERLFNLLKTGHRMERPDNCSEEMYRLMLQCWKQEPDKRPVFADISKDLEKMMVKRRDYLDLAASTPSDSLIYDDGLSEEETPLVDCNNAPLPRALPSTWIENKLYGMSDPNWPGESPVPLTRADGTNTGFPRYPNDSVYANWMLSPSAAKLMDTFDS
Experimental: Compounds are tested for the ability to inhibit Ret kinase in an ELISA-based assay. The assay is carried out in a Costar white 96 well plate (Fisher Scientific, #07-200-591) coated overnight with 0.01 mg/mL NeutrAvidin (Pierce, 100 μL/well) at 4° C. The pre-coated 96 well plate is blocked with 2% BSA in PBST buffer for at least 1 h at room temperature before starting the assay. Serially diluted test compound stock solution is prepared separately in DMSO solution starting from 300 μM, and 2 μL/well of this diluted compound (3% DMSO final concentration) is added directly to the NeutrAvidin coated assay plate containing 55.5 μL/well of kinase reaction buffer (20 mM HEPES, pH 7.4, 5 mM MgCl2, 1 mM DTT, 0.01% Brij-35) pre-mixed with ATP and kinase substrate (TK2 peptide). Reaction is initiated by adding 2.5 μL/well Ret kinase (Millipore, #14-570) resulting in a final reaction volume of […]. The reaction is allowed to continue for 30 minutes at room temperature. […] After completing the reaction, the wells are washed three times with PBST and incubated for 1 h at room temperature with 100 μL/well of phosphopeptide detection antibody solution (mixture of 1:10000 diluted mouse anti-pTyr monoclonal antibody (Cell Signal Technology, #9411) and 1:10000 diluted goat HRP-conjugated anti-mouse IgG (Jackson Immunoresearch, #115-035-003)). The plate is washed three times with PBST, developed with supersignal ELISA pico chemiluminescent substrate (Pierce), and read on a SpectraMax M5 microplate reader (Molecular Devices).

Syk kinase = target: T2, Syk kinase (Homo sapiens, UniProt P43405); assay: Fluorescence Polarization Syk kinase assay; format: biochemical; details: for IC50: Table 2, unit inferred, read-out: FP-based Biochem Syk; for potency compared with the control, biochemical assay: vs control compound
T2 construct: purchased Millipore #14-314
Experimental: Compounds are tested for the ability to inhibit Syk kinase catalyzed phosphorylation of a peptide substrate in a biochemical fluorescence polarization assay with isolated Syk kinase.
Test compound stock solutions (10 mM) containing are serially diluted in DMSO starting from 2.5 mM and then further diluted to desired concentration of 50 μM (5×) to yield 2% DMSO concentration in kinase buffer (20 mM HEPES, pH 7.4, 5 mM MgCl2, 2 mM MnCl2, 1 mM DTT, 0.1 mg/mL acetylated Bovine Gamma Globulin). The assay is carried out in a black 96 well low volume plate (Molecular Devices, #42-000-0117) by transferring compound in 2% DMSO (0.4% DMSO final) pre-mixed with ATP/substrate (TK2 peptide) in kinase buffer at room temperature. Syk kinase (Millipore, #14-314) is added to a final reaction volume of 20 μL, and the reaction is incubated for 30 minutes at room temperature. […] The reaction is stopped by addition of 20 μL of PTK quench mix containing EDTA (10 mM final)/anti-phosphotyrosine antibody (1× final)/fluorescent phosphopeptide tracer (0.5× final) diluted in FP dilution buffer to stop the reaction to a total volume of 40 μL according to the manufacturer's instructions (Invitrogen). The plate is incubated in the dark for additional 30 minutes at room temperature and then read on a Polarion fluorescence polarization plate reader (Tecan). Data are converted to amount of phosphopeptide present using a calibration curve generated by competition with the phosphopeptide competitor provided in the Tyrosine Kinase Assay Kit, Green (Invitrogen, #P2837).

KDR/VEGFR2 enzyme = target: T3, KDR/VEGFR2 enzyme (Homo sapiens, UniProt P35968); assay: Biochemical VEGFR Assay (ELISA); details: Table 2, unit inferred; read-out: Biochem VEGFR2
T3 construct: purchased Millipore #14-630
T3 sequence (P35968 790-1356 limits assumed): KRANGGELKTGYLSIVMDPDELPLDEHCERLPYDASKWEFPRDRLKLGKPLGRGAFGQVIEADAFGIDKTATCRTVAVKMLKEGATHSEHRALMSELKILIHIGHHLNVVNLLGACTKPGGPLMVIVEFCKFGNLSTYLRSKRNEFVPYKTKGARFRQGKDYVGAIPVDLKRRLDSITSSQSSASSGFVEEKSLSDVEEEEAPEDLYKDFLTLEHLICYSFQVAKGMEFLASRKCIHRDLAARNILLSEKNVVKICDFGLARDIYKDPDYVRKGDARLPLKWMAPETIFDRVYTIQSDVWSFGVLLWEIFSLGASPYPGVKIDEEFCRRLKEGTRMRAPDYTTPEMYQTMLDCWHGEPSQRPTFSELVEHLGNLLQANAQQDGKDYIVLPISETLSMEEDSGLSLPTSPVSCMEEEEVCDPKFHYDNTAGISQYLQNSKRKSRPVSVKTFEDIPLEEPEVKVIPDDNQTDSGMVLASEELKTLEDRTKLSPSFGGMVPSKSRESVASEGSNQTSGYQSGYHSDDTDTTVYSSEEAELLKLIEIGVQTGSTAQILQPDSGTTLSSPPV
Experimental: Compounds are tested for the ability to inhibit VEGF2 in an ELISA assay. […] Plates are then washed with 1×PBST using a plate washer, then blocked with 2% BSA in 1×PBST (100 μL/well) for 1 hr at room temperature. The NeutrAvidin-coated plates are again washed with 1×PBST using a plate washer.
The mixed test compound/reaction solutions are added to the wells of the NeutrAvidin-coated plates (50 μL/well). 6× enzyme solution (1000 parts kinase buffer, 0.6 parts KDR/VEGFR2 enzyme (50 μg/mL, Millipore, #14-630) is added to all wells except those designated as negative controls. The plates are incubated for 30 minutes on a shaker at room temperature.
The detection reagent is added at 100 μL/well, and the plates are incubated for 60 minutes at room temperature, then washed with 1×PBST using a plate washer.

Row | IC50 (Ret kinase) | selectivity over Ret kinase compared with the control (Ret kinase) | IC50 (Syk kinase) | potency compared with the control, biochemical assay (Syk kinase) | IC50 (KDR/VEGFR2 enzyme) | SMILES
1 | 0.048 µM | significantly more selective | 0.04 µM | somewhat less potent than the control | 0.77 µM | CC1(C)Oc2ccc(Nc3nc(Nc4ccc(N5CCOCC5)nc4)ncc3F)nc2NC1=O [Compound 1, N4-(2,2-Dimethyl-3-oxo-4H-5-pyrido[1,4]oxazin-6-yl)-5-fluoro-N2-[6-morpholinopyridin-3-yl]-2,4-pyrimidinediamine]
2 | 0.006 µM | significantly more selective | 0.08 µM | somewhat less potent than the control | 0.34 µM | CC1(C)Oc2ccc(Nc3nc(Nc4ccc(N5CCOCC5)cc4)ncc3F)nc2NC1=O [Compound 3, N4-(2,2-Dimethyl-3-oxo-4H-5-pyrido[1,4]oxazin-6-yl)-5-fluoro-N2-(4-morpholinophenyl)-2,4-pyrimidinediamine]
